# Like-named read-outs stand apart in the source and are kept apart here.
# Legend:
# [1] = system: human prostate cancer cells PC-3; assay: MTT growth inhibition, PC-3 cells; type: cell-based; settings: 72 h after treatment, read-out: Drug concentration (IC50) at which 50% cancer cells survived
# [2] = system: human lung cancer cells A549 xenograft; assay: In-vivo growth of A549 xenografts in nude mice; parameters: species or system BALB/c nude mice; settings: Mus musculus, ip, vs DMSO solvent control, read-out: Curative effect (inhibition rate %) of tumor weight; for inhibition in vivo at 60 mg/kg: 60 mg/kg intraperitoneal once a day; for inhibition in vivo at 90 mg/kg: 90 mg/kg intraperitoneal once a day
# Description: (§1) RPMI1640 and DMEM culture solutions: Hyclone Company; inactivated fetal bovine serum: Hyclone Company, preserved at −20° C.; trypsin: Amersco Company; and 0.4% trypan blue: Sigma Company;
# (§2) (3) Observation of growth of tumors in nude mice: the activities (including food intake, traits of urine and stool, mental state and the like) of the nude mice and the tumor growth time and growth situation of the transplanted tumors were observed every day, the body weight and the size of the tumors were measured once every 2-3 days. The long diameter a and the short diameter b (mm) of each tumor were measured by a vernier caliper to calculate the volume, wherein the volume V=π1/2·ab^2 (mm^3);
# (§3) (4) sacrifice of animals: the mice were anesthetized and photoed after treatment experiments; the nude mice were sacrificed by breaking neck, the tumor tissues were stripped under sterile conditions and the weight of the tumors was weighed; and the effects of the drugs on pathology and toxicity of the various organs and tissues were detected.
# [3] = system: nucleoprotein factor NF-κB (p65)-DNA binding activity; assay: NF-κB (p65)-DNA binding activity (EMSA); type: cell-based
# From the text: The in-vitro experiment of the inhibitory effect against the NF-κB(p65)-DNA binding activity was applied with the chemiluminescent EMSA kit of Pierce Biotechnology Company of the U.S., the experimental method was strictly operated according to the description of the kit and the specific procedure were as follows:
# (1) Preparation of EMSA gel
# The cells treated by the drugs were extracted by the nucleoprotein extract solution (provided by Beyotime Biotechnology of Institute) to obtain the nucleoprotein extracts, and 10 μg/pipe of the nucleoprotein extracts were respectively used for sample reaction and electrophoresis detection and analysis shown in the following table.
# (2) Pre-electrophoresis: the gel was fixed in an electrophoresis tank, which was filled with a 0.5×TBE electrophoresis buffer solution, and electrophoresed under 10V/cm for 90 min. The probe binding reaction was as follows:
# The components were added in sequence into the EP pipe according to the above table, uniformly mixed and stood at room temperature for 15 min to eliminate possible non-specific binding of probe and protein. 1 μl of biotin-labeled probe NF-κB was respectively added and stood at room temperature for 20 min.
# (4) Film transfer: the process of transferring the nucleoprotein factors and the binding probe on the EMSA gel to the nylon film was electrically transferred under 380 mA in ice bath for 40 min.
# (5) Ultraviolet cross-linking: the nylon film was placed under a 254 nm ultraviolet lamp and irradiated for 15 min.
# (6) Detection of the biotin-labeled probe by chemiluminescence: the cross-linked nylon film was blocked with the blocking solution, a treated film was subjected to X-ray exposure, developing, and fixation according to the requirements of the kit, and the results were analyzed.
# [4] = system: Lewis lung cancer (highly metastatic mouse lung cancer) cells; assay: Mouse Lewis lung cancer metastasis model; type: in vivo, C57/BL6J black mice; settings: Lewis lung carcinoma, ip, LLC, vs DMSO solvent control, read-out: tumor lung metastasis inhibition rate % of mouse Lewis lung cancer; for inhibition in vivo at 60 mg/kg: 60 mg/kg intraperitoneal once a day; for inhibition in vivo at 90 mg/kg: 90 mg/kg intraperitoneal once a day
# Description: as §1, §3
# [5] = system: human breast cancer cells MCF-7 xenograft; assay: In-vivo growth of MCF-7 xenografts in nude mice; parameters: species or system BALB/c nude mice; settings: Mus musculus, MCF7, ip, vs DMSO solvent control, read-out: Curative effect (inhibition rate %) of tumor weight; for inhibition in vivo at 60 mg/kg: 60 mg/kg intraperitoneal once a day; for inhibition in vivo at 90 mg/kg: 90 mg/kg intraperitoneal once a day
# Description: as §1, §2, §3
# [6] = system: human cervical cancer cells Hela xenograft; assay: In-vivo growth of Hela xenografts in nude mice; parameters: species or system BALB/c nude mice; settings: Mus musculus, ip, vs DMSO solvent control, read-out: Curative effect (inhibition rate %) of tumor weight; for inhibition in vivo at 60 mg/kg: 60 mg/kg intraperitoneal once a day; for inhibition in vivo at 90 mg/kg: 90 mg/kg intraperitoneal once a day
# Description: as §1, §2, §3
# [7] = system: human breast cancer cells MCF-7; assay: MTT growth inhibition, MCF-7 cells; type: cell-based; settings: MCF7, 72 h after treatment, read-out: Drug concentration (IC50) at which 50% cancer cells survived
# [8] = A549 cells, EMSA, nuclear protein extracts, 48 h, read-out: Effective concentration for 50% inhibition of binding of nucleoprotein factor NF-kB (p65) and DNA
# [9] = Hela cells, EMSA, nuclear protein extracts, 48 h, read-out: Effective concentration for 50% inhibition of binding of nucleoprotein factor NF-kB (p65) and DNA
# [10] = MCF7 cells, EMSA, nuclear protein extracts, 48 h, read-out: Effective concentration for 50% inhibition of binding of nucleoprotein factor NF-kB (p65) and DNA
# [11] = MDA-MB231 cells, EMSA, nuclear protein extracts, 48 h, read-out: Effective concentration for 50% inhibition of binding of nucleoprotein factor NF-kB (p65) and DNA
# [12] = PANC-1 cells, EMSA, nuclear protein extracts, 48 h, read-out: Effective concentration for 50% inhibition of binding of nucleoprotein factor NF-kB (p65) and DNA
# [13] = SMMC7721 cells, EMSA, nuclear protein extracts, 48 h, read-out: Effective concentration for 50% inhibition of binding of nucleoprotein factor NF-kB (p65) and DNA
# [14] = human liver cancer cells, Lewis lung cancer cells and other cancer cell lines and tumor tissues, read-out: Effective concentration (IC50) for inhibition of NF-κB-DNA binding activity
Compound,IC50 [1],inhibition in vivo at 60 mg/kg [2],inhibition in vivo at 90 mg/kg [2],"IC50 [3, 8]","IC50 [3, 9]","IC50 [3, 10]","IC50 [3, 11]","IC50 [3, 12]","IC50 [3, 13]","IC50 [3, 14]",inhibition in vivo at 60 mg/kg [4],inhibition in vivo at 90 mg/kg [4],inhibition in vivo at 60 mg/kg [5],inhibition in vivo at 90 mg/kg [5],inhibition in vivo at 60 mg/kg [6],inhibition in vivo at 90 mg/kg [6],IC50 [7]
"CCNC(=O)CC[C@@H](NC(=O)c1cc2cc(Cl)cc(Cl)c2oc1=O)C(=O)OCC [Compound Ig, (R)-2-(6,8-dichloro-2-oxo-2H-benzopyran-3-carboxamido)-5-ethylamino-5-oxo-pentanoic ethyl ester]",45 µM,56.6%,66.6%,< 70 µM,< 70 µM,< 70 µM,< 70 µM,< 70 µM,< 70 µM,< 125 µM,75.5%,79.9%,65.7%,76.9%,56.7%,70.3%,75 µM
"CCNC(=O)CC[C@@H](NC(=O)c1cc2cc(Br)cc(Br)c2oc1=O)C(=O)OCC [Compound Ih, (R)-2-(6,8-dibromo-2-oxo-2H-benzopyran-3-carboxamido)-5-ethylamino-5-oxo-pentanoic ethyl ester]",87 µM,53.8%,63.8%,< 70 µM,< 70 µM,< 70 µM,< 70 µM,< 70 µM,< 70 µM,< 125 µM,77.9%,80.7%,58.9%,75.9%,62.9%,72.6%,91 µM

# Source: patent publication US9518038B2, “Condensation product of theanine derivative and carboxylic acid coumarin derivative, its intermediate, preparation method and use thereof” (SHANDONG YINGDONG YINGHAO BIOTECHNOLOGY, INC., priority 2012, dated 2016)
